Broadly, the DC50 is the midpoint of the concentration-degradation curve.

The assay concerns the target T1, ERα (Homo sapiens, UniProt P03372).
T1 construct: endogenous in cells; host or cells: T47D
T1 sequence (P03372 1-595): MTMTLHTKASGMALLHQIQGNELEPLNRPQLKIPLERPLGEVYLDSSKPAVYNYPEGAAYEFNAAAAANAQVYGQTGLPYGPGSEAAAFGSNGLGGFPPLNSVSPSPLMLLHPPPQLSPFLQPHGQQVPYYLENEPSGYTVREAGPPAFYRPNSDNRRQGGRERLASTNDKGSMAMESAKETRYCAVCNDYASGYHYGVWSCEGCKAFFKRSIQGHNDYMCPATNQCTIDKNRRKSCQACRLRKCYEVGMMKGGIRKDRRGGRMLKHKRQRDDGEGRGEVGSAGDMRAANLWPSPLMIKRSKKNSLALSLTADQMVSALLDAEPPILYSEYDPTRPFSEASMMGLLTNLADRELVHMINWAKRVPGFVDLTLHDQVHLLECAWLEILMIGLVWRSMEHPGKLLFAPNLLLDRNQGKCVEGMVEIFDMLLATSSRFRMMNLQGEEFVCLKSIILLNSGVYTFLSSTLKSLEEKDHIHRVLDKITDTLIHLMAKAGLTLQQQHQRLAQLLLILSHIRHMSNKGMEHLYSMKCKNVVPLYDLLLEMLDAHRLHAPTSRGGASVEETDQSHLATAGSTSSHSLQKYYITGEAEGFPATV
In words: ERα degradative activity in T47D cells (Western blot, 6 hours after administration). In kind it is cell-based. Conditions: T47D cell line, ERα degradation. As to the method: T47D cells were plated in 24-well plates at 1.5×10^5 cells/well in the RPMI growth medium containing 10% FBS and 1× Penicillin Streptomycin. MCF7 cells were plated in 24-well plates at 1.5×10^5 cells/well in the DMEM growth medium containing 10% FBS and 1× Penicillin Streptomycin. CAMA1 cells were plated in 24-well plates at 2×10^5 cells/well in the RPMI growth medium containing 20% FBS and 1× Penicillin Streptomycin. They were then incubated at 37° C. overnight. The following day, the test compound was administered to the cells by using 1000× compound stock solution prepared in DMSO at various concentrations. After administration of the compound, the cells were then incubated at 37° C. for 6 hours.
Upon completion, the cells were washed with PBS and protein was collected in Laemmli sample buffer (1×; VWR International). Proteins in cell lysate were separated by SDS-PAGE and transferred to Odyssey nitrocellulose membranes (Licor) with Iblot® dry blotting transfer system (ThermoFisher). Nonspecific binding was blocked by incubating membranes with Intercept Blocking Buffer (Licor) for 1 hour at room temperature with gentle shaking. The membranes were then incubated overnight at 4° C. with Primary antibodies rabbit anti-ER (Cell Signaling, 8644) and mouse anti-GAPDH (1:5,000, Santa Cruz Biotechnology, sc-47724) diluted in Intercept Blocking Buffer containing 0.1% Tween 20. After washing 3 times with TBS-T, the membranes were incubated with IRDye® 800CW goat anti-mouse IgG (1:20,000, Licor) or IRDye® 800CW goat anti-rabbit IgG (1:20,000, Licor) for 1 hour. After TBS-T washes, membranes were rinsed in TBS and scanned on Odyssey® CLx Imaging System (Licor). The bands were quantified using Image Studio™ Software (Licor).
Background: A western blot detects proteins with antibodies after separation by electrophoresis.

Take `O=C1CC[C@H](N2Cc3cc(N4CCN(CC5CCN(c6ccc([C@@H]7c8ccc(O)cc8OC[C@@H]7c7ccccc7)cc6F)CC5)CC4)ccc3C2=O)C(=O)N1` [Compound 86, (S)-3-(5-(4-((1-(2-fluoro-4-((3S,4R)-7-hydroxy-3-phenylchroman-4-yl)phenyl)piperidin-4-yl)methyl)piperazin-1-yl)-1-oxoisoindolin-2-yl)piperidine-2,6-dione]: the DC50 is 0.5 nM.

Source of the values: patent US10800770B1, “Chroman derivatives having estrogen receptor degradation activity and uses thereof” (ACCUTAR BIOTECHNOLOGY INC., priority 2019, dated 2020).
